Assay results published in patent US20240246967A1, “AXL COMPOUNDS” (ARCUS BIOSCIENCES, INC., priority 2021, published 2024).
pIC50: −log10 of the molar value. Each block holds one compound with its values, some of them ahead of it.

How the values were obtained:
Axl [1] = target: T1, Axl (Homo sapiens, UniProt P30530); assay: HTRF KinEASE-TK biochemical potency assay, AXL; design: purchased Invitrogen; conditions: 5 nM AXL, 700 μM ATP, 800 nM TK Substrate-biotin
T1 sequence (P30530 26-894): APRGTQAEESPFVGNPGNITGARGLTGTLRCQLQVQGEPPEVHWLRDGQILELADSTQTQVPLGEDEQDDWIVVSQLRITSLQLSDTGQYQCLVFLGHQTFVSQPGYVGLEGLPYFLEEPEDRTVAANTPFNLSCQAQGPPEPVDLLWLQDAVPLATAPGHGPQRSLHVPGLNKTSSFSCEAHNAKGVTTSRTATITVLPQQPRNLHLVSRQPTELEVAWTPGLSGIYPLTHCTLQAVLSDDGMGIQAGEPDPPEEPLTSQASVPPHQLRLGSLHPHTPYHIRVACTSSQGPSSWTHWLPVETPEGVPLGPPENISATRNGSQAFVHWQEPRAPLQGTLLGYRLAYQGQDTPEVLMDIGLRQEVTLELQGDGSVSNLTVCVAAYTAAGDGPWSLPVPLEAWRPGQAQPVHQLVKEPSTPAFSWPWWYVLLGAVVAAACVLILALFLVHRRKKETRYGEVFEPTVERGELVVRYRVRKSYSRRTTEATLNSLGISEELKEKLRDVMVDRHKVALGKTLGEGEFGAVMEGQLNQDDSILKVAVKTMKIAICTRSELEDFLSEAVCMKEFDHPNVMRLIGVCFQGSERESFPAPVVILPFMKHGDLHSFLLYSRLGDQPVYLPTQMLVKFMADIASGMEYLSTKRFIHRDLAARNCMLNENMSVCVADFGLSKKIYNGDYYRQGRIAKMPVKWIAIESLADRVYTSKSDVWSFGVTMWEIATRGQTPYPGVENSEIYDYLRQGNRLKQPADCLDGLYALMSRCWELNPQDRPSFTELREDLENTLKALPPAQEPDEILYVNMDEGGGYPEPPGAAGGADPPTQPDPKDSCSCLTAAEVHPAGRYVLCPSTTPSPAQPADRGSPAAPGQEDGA
Procedure, shortened: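 Recombinant human kinase preincubated 1 h at RT with compound, then reacted 2 h at RT with 800 nM biotin-TK substrate and 700 μM ATP (final; 5 nM AXL, 1 nM TYRO3 or MER) in HEPES pH 7.4, MgCl2, BSA, DTT, 1% DMSO. HTRF 665/620 ratio read; percent activity versus DMSO and pre-quenched controls.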

Axl [2] = target: T1, Axl; assay: Axl NanoBRET intracellular kinase assay (intracellular binding, Cell Binding); design: host or cells: HEK-293; conditions: HEK-293 cells transfected with Axl-NanoLuc fusion vector; 0.35 μM K-5 NanoBRET tracer
Procedure, shortened: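 Intracellular binding measured as loss of BRET (610 nm/450 nm) when compounds displace 0.35 μM K-5 tracer from Axl-NanoLuc in transfected HEK-293 cells.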

pIC50 (Axl [1]): > 7.00
pIC50 (Axl [2]): > 7.00
Compound: COC1CCN(C(=O)c2ccc(-c3n[nH]c4ncc(-c5ccc6c(c5)CCC(C)(N5CCC[C@H]5C)CC6)cc34)cc2Cl)CC1 (stereo partly drawn) [Example 67, 1-[2-Chloro-4-(5-{7-methyl-7-[(2R)-2-methylpyrrolidin-1-yl]-6,7,8,9-tetrahydro-5H-benzo[7]annulen-2-yl}-1H-pyrazolo[3,4-b]pyridin-3-yl)benzoyl]-4-methoxypiperidine]

pIC50 (Axl [1]): > 7.00
pIC50 (Axl [2]): > 7.00
Compound: C[C@@H]1CCCN1C1(C)CCc2ccc(-c3cnc4[nH]nc(-c5ccc(C(N)=O)c(Cl)c5)c4c3)cc2CC1 (stereo partly drawn) [Example 68, 2-Chloro-4-(5-{7-methyl-7-[(2R)-2-methylpyrrolidin-1-yl]-6,7,8,9-tetrahydro-5H-benzo[7]annulen-2-yl}-1H-pyrazolo[3,4-b]pyridin-3-yl)benzamide]

pIC50 (Axl [1]): > 7.00
pIC50 (Axl [2]): > 7.00
Compound: C[C@@H]1CCCN1C1(C)CCc2ccc(-c3cnc4[nH]nc(-c5ccc(C(=O)NC6CC6)cc5)c4c3)cc2CC1 (stereo partly drawn) [Example 69, N-Cyclopropyl-4-(5-{7-methyl-7-[(2R)-2-methylpyrrolidin-1-yl]-6,7,8,9-tetrahydro-5H-benzo[7]annulen-2-yl}-1H-pyrazolo[3,4-b]pyridin-3-yl)benzamide]

pIC50 (Axl [1]): > 7.00
pIC50 (Axl [2]): > 7.00
Compound: CC(C)NC(=O)c1ccc(-c2n[nH]c3ncc(-c4ccc5c(c4)CCC(C)(N4CCC[C@H]4C)CC5)cc23)cc1 (stereo partly drawn) [Example 70, 4-(5-{7-Methyl-7-[(2R)-2-methylpyrrolidin-1-yl]-6,7,8,9-tetrahydro-5H-benzo[7]annulen-2-yl}-1H-pyrazolo[3,4-b]pyridin-3-yl)-N-(propan-2-yl)benzamide]

pIC50 (Axl [1]): > 7.00
pIC50 (Axl [2]): > 7.00
Compound: COCCNC(=O)c1ccc(-c2n[nH]c3ncc(-c4ccc5c(c4)CCC(C)(N4CCC[C@H]4C)CC5)cc23)cc1 (stereo partly drawn) [Example 72, N-(2-Methoxyethyl)-4-(5-{7-methyl-7-[(2R)-2-methylpyrrolidin-1-yl]-6,7,8,9-tetrahydro-5H-benzo[7]annulen-2-yl}-1H-pyrazolo[3,4-b]pyridin-3-yl)benzamide]

pIC50 (Axl [1]): > 7.00
pIC50 (Axl [2]): > 7.00
Compound: CCC1(N2CCC[C@H]2C)CCc2ccc(-c3cnc4[nH]nc(-c5ccc(C(N)=O)c(Cl)c5)c4c3)cc2CC1 (stereo partly drawn) [Example 73, 2-Chloro-4-(5-{7-ethyl-7-[(2R)-2-methylpyrrolidin-1-yl]-6,7,8,9-tetrahydro-5H-benzo[7]annulen-2-yl}-1H-pyrazolo[3,4-b]pyridin-3-yl)benzamide]

pIC50 (Axl [1]): > 7.00
pIC50 (Axl [2]): > 7.00
Compound: CCC1(N2CCC[C@@H]2CO)CCc2ccc(-c3cnc4[nH]nc(-c5ccc(C(N)=O)c(Cl)c5)c4c3)cc2CC1 (stereo partly drawn) [Example 74, 2-Chloro-4-(5-{7-ethyl-7-[(2R)-2-(hydroxymethyl)pyrrolidin-1-yl]-6,7,8,9-tetrahydro-5H-benzo[7]annulen-2-yl}-1H-pyrazolo[3,4-b]pyridin-3-yl)benzamide]

pIC50 (Axl [1]): > 7.00
pIC50 (Axl [2]): > 7.00
Compound: CCC1(N2CCC[C@H]2CO)CCc2ccc(-c3cnc4[nH]nc(-c5ccc(C(N)=O)c(Cl)c5)c4c3)cc2CC1 (stereo partly drawn) [Example 75, 2-Chloro-4-(5-{7-ethyl-7-[(2S)-2-(hydroxymethyl)pyrrolidin-1-yl]-6,7,8,9-tetrahydro-5H-benzo[7]annulen-2-yl}-1H-pyrazolo[3,4-b]pyridin-3-yl)benzamide]

pIC50 (Axl [1]): > 7.00
pIC50 (Axl [2]): > 7.00
Compound: C[C@@H]1CCCN1C1(C)CCc2ccc(-c3cnc4[nH]nc(-c5ccc(C(=O)N6CCC6)cc5)c4c3)cc2CC1 (stereo partly drawn) [Example 76, (2R)-1-(2-{3-[4-(Azetidine-1-carbonyl)phenyl]-1H-pyrazolo[3,4-b]pyridin-5-yl}-7-methyl-6,7,8,9-tetrahydro-5H-benzo[7]annulen-7-yl)-2-methylpyrrolidine]

pIC50 (Axl [1]): > 7.00
pIC50 (Axl [2]): > 7.00
Compound: NC(=O)c1ccc(-c2n[nH]c3ncc(-c4ccc5c(c4)CCC(N4CCCC4)CC5)cc23)cc1Cl (stereo not drawn) [Example 77, 2-Chloro-4-(5-(7-(pyrrolidin-1-yl)-6,7,8,9-tetrahydro-5H-benzo[7]annulen-2-yl)-1H-pyrazolo[3,4-b]pyridin-3-yl)benzamide]

The remaining lines, values behind:

Compound: C[C@@H]1CCCN1C1(C)CCc2ccc(-c3cnc4[nH]nc(-c5ccc(S(=O)(=O)C6CC6)cc5)c4c3)cc2CC1 (stereo partly drawn) [Example 1, 3-(4-(Cyclopropylsulfonyl)phenyl)-5-(7-methyl-7-((R)-2-methylpyrrolidin-1-yl)-6,7,8,9-tetrahydro-5H-benzo[7]annulen-2-yl)-1H-pyrazolo[3,4-b]pyridine]
pIC50 (Axl [1]): > 7.00
pIC50 (Axl [2]): > 7.00

Compound: CC1(N2CCOCC2)CCc2ccc(-c3cnc4[nH]nc(-c5ccc(S(=O)(=O)C6CC6)cc5)c4c3)cc2CC1 (stereo not drawn) [Example 2, 4-(2-{3-[4-(Cyclopropanesulfonyl)phenyl]-1H-pyrazolo[3,4-b]pyridin-5-yl}-7-methyl-6,7,8,9-tetrahydro-5H-benzo[7]annulen-7-yl)morpholine]
pIC50 (Axl [1]): < 6.00
pIC50 (Axl [2]): < 6.00

Compound: CC1(N2CCC[C@@H]2CO)CCc2ccc(-c3cnc4[nH]nc(-c5ccc(S(=O)(=O)C6CC6)cc5)c4c3)cc2CC1 (stereo partly drawn) [Example 3, [(2R)-1-(2-{3-[4-(Cyclopropanesulfonyl)phenyl]-1H-pyrazolo[3,4-b]pyridin-5-yl}-7-methyl-6,7,8,9-tetrahydro-5H-benzo[7]annulen-7-yl)pyrrolidin-2-yl]methanol]
pIC50 (Axl [1]): > 7.00
pIC50 (Axl [2]): > 7.00

Compound: C[C@@H]1CCCN1C1CCc2ccc(-c3cnc4[nH]nc(-c5ccc(C6(O)CCOC6)c(Cl)c5)c4c3)cc2CC1 (stereo partly drawn) [Example 63, 3-[2-Chloro-4-(5-{7-[(2R)-2-methylpyrrolidin-1-yl]-6,7,8,9-tetrahydro-5H-benzo[7]annulen-2-yl}-1H-pyrazolo[3,4-b]pyridin-3-yl)phenyl]oxolan-3-ol]
pIC50 (Axl [1]): > 7.00
pIC50 (Axl [2]): > 7.00

Compound: C[C@@H]1CCCN1C1CCc2ccc(-c3cnc4[nH]nc(-c5ccc(C6(O)COC6)c(Cl)c5)c4c3)cc2CC1 (stereo partly drawn) [Example 64, 3-[2-Chloro-4-(5-{7-[(2R)-2-methylpyrrolidin-1-yl]-6,7,8,9-tetrahydro-5H-benzo[7]annulen-2-yl}-1H-pyrazolo[3,4-b]pyridin-3-yl)phenyl]oxetan-3-ol]
pIC50 (Axl [1]): > 7.00
pIC50 (Axl [2]): < 6.00

Compound: C[C@@H]1CCCN1C1CCc2ccc(-c3cnc4[nH]nc(-c5cnc(C(C)(C)O)c(Cl)c5)c4c3)cc2CC1 (stereo partly drawn) [Example 65, 2-[3-Chloro-5-(5-{7-[(2R)-2-methylpyrrolidin-1-yl]-6,7,8,9-tetrahydro-5H-benzo[7]annulen-2-yl}-1H-pyrazolo[3,4-b]pyridin-3-yl)pyridin-2-yl]propan-2-ol]
pIC50 (Axl [1]): > 7.00
pIC50 (Axl [2]): > 7.00

Compound: COC1CCN(C(=O)c2ccc(-c3n[nH]c4ncc(-c5ccc6c(c5)CC[C@@H](N5CCCC5)CC6)cc34)cc2Cl)CC1 [Example 66, (S)-(2-Chloro-4-(5-(7-(pyrrolidin-1-yl)-6,7,8,9-tetrahydro-5H-benzo[7]annulen-2-yl)-1H-pyrazolo[3,4-b]pyridin-3-yl)phenyl)(4-methoxypiperidin-1-yl)methanone]
pIC50 (Axl [1]): > 7.00
pIC50 (Axl [2]): > 7.00

Compound: NC(=O)c1ccc(-c2n[nH]c3ncc(-c4ccc5c(c4)CCC(N4CCCC4)CC5)cc23)cc1 (stereo not drawn) [Example 78, 4-(5-(7-(Pyrrolidin-1-yl)-6,7,8,9-tetrahydro-5H-benzo[7]annulen-2-yl)-1H-pyrazolo[3,4-b]pyridin-3-yl)benzamide]
pIC50 (Axl [1]): > 7.00
pIC50 (Axl [2]): > 7.00

Compound: Cc1cc(-c2n[nH]c3ncc(-c4ccc5c(c4)CCC(N4CCCC4)CC5)cc23)cc(F)c1C(N)=O (stereo not drawn) [Example 79, 2-Fluoro-6-methyl-4-(5-(7-(pyrrolidin-1-yl)-6,7,8,9-tetrahydro-5H-benzo[7]annulen-2-yl)-1H-pyrazolo[3,4-b]pyridin-3-yl)benzamide]
pIC50 (Axl [1]): > 7.00
pIC50 (Axl [2]): > 7.00

Compound: NC(=O)c1ccc(-c2n[nH]c3ncc(-c4ccc5c(c4)CCC(N4CCCC4)CC5)cc23)cc1C(F)(F)F (stereo not drawn) [Example 80, 4-(5-(7-(Pyrrolidin-1-yl)-6,7,8,9-tetrahydro-5H-benzo[7]annulen-2-yl)-1H-pyrazolo[3,4-b]pyridin-3-yl)-2-(trifluoromethyl)benzamide]
pIC50 (Axl [1]): > 7.00
pIC50 (Axl [2]): > 7.00

Compound: NC(=O)c1ccc(-c2n[nH]c3ncc(-c4ccc5c(c4)CCC(N4CCCC4)CC5)cc23)cc1F (stereo not drawn) [Example 81, 2-Fluoro-4-(5-(7-(pyrrolidin-1-yl)-6,7,8,9-tetrahydro-5H-benzo[7]annulen-2-yl)-1H-pyrazolo[3,4-b]pyridin-3-yl)benzamide]
pIC50 (Axl [1]): > 7.00
pIC50 (Axl [2]): > 7.00
